Test results taken from the supplement of paper PMC10307832.

How the values were obtained:
Test in all cases: relative viability (nuclei count vs DMSO), 5 days (fraction); higher = more cells survive
AZD5582 + Pemetrexed = compound: C[C@@H](C(=O)N[C@@H](C1CCCCC1)C(=O)N2CCC[C@H]2C(=O)N[C@@H]3[C@@H](CC4=CC=CC=C34)OCC#CC#CCO[C@@H]5CC6=CC=CC=C6[C@@H]5NC(=O)[C@@H]7CCCN7C(=O)[C@H](C8CCCCC8)NC(=O)[C@H](C)NC)NC [AZD5582] + Nc1nc2[nH]cc(CCc3ccc(C(=O)N[C@@H](CCC(=O)O)C(=O)O)cc3)c2c(=O)[nH]1 [Pemetrexed] (partner 0.2 µM)
In short: (§1)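 Nuclei were stained with Hoechst during a one-step fixation (final 0.05% Triton X-100, 1% formaldehyde, 1 ug/ml Hoechst) carried out 5 days after dosing, then counted on 4× images. The cells, lung cancer lines in 1536-well plates, had been dosed by pin tool the day after seeding with one drug alone or a fixed anchor-drug dose plus five library-drug doses (not always all listed) in √10 steps. Relative viability is the nuclei count in treated wells divided by that in vehicle wells, and each value is the median of duplicate plates.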

AZD5582 + Olaparib = compound: C[C@@H](C(=O)N[C@@H](C1CCCCC1)C(=O)N2CCC[C@H]2C(=O)N[C@@H]3[C@@H](CC4=CC=CC=C34)OCC#CC#CCO[C@@H]5CC6=CC=CC=C6[C@@H]5NC(=O)[C@@H]7CCCN7C(=O)[C@H](C8CCCCC8)NC(=O)[C@H](C)NC)NC [AZD5582] + O=C(c1cc(Cc2n[nH]c(=O)c3ccccc23)ccc1F)N1CCN(C(=O)C2CC2)CC1 [Olaparib] (partner 8 µM)
In short: as §1

[1] = compound: Cn1nnc2c(C(N)=O)ncn2c1=O [Temozolomide] + CS(=O)(=O)N1CCN(Cc2cc3nc(-c4cccc5[nH]ncc45)nc(N4CCOCC4)c3s2)CC1 [Pictilisib] (partner 1 µM)
In short: as §1

[2] = compound: Cn1nnc2c(C(N)=O)ncn2c1=O [Temozolomide] + O=C(CCCCCCC(=O)Nc1ccccc1)NO [Vorinostat] (partner 1 µM)
In short: as §1

Cell Line | relative viability (AZD5582 + Pemetrexed; first compound 0.001581 µM) | relative viability (AZD5582 + Pemetrexed; first compound 0.005 µM) | relative viability (AZD5582 + Pemetrexed; first compound 0.01581 µM) | relative viability (AZD5582 + Pemetrexed; first compound 0.05 µM) | relative viability (AZD5582 + Olaparib; first compound 0.001581 µM) | relative viability (AZD5582 + Olaparib; first compound 0.005 µM) | relative viability (AZD5582 + Olaparib; first compound 0.01581 µM) | relative viability (AZD5582 + Olaparib; first compound 0.05 µM) | relative viability ([1]; first compound 0.6325 µM) | relative viability ([1]; first compound 2 µM) | relative viability ([1]; first compound 6.325 µM) | relative viability ([1]; first compound 20 µM) | relative viability ([2]; first compound 0.6325 µM) | relative viability ([2]; first compound 2 µM) | relative viability ([2]; first compound 6.325 µM) | relative viability ([2]; first compound 20 µM) | relative viability ([1]; first compound 0.2 µM) | relative viability ([2]; first compound 0.2 µM)
NCI-H1793 | 0.787 | 1.21 | 0.624 | 1.07 | 0.674 | 1.08 | 0.75 | 1.23 | 0.294 | 0.286 | 0.292 | 0.309 | 0.847 | 0.758 | 0.692 | 0.503 | – | –
NCI-H1915 | 0.437 | 0.428 | 0.506 | 0.497 | 0.279 | 0.244 | 0.25 | 0.226 | 0.914 | 0.962 | 0.468 | 0.326 | 0.517 | 0.507 | 0.343 | 0.241 | 1.11 | 0.61
NCI-H1944 | 0.455 | 0.556 | 0.521 | 0.62 | 0.379 | 0.403 | 0.365 | 0.446 | 0.352 | 0.363 | 0.346 | 0.342 | 0.561 | 0.541 | 0.474 | 0.517 | 0.366 | 0.557
NCI-H1975 | 0.266 | 0.248 | 0.291 | 0.235 | 0.862 | 1.06 | 0.764 | 0.951 | 0.308 | 0.311 | 0.302 | 0.311 | 0.76 | 0.711 | 0.701 | 0.719 | 0.272 | 0.854
NCI-H1993 | 0.495 | 0.527 | 0.561 | 0.679 | 0.982 | 1.16 | 1.06 | 1.12 | 0.819 | 0.871 | 0.826 | 0.834 | 0.829 | 1.07 | 0.798 | 0.507 | 0.853 | 0.546
NCI-H2009 | 1 | 1.01 | 1.03 | 1.08 | 0.636 | 0.703 | 0.706 | 0.751 | 0.891 | 0.893 | 0.638 | 0.87 | 0.737 | 0.712 | 0.706 | 0.684 | 0.969 | 0.826
NCI-H2023 | 0.198 | 0.216 | 0.26 | 0.183 | 0.401 | 0.381 | 0.48 | 0.412 | 0.225 | 0.248 | 0.207 | 0.265 | 0.676 | 0.675 | 0.502 | 0.718 | 0.254 | 0.725
NCI-H2085 | 0.999 | 1.07 | 0.482 | 0.848 | 0.842 | 0.903 | 0.726 | 0.733 | 0.434 | 0.551 | 0.453 | 0.442 | 0.816 | 0.865 | 0.76 | 0.68 | 0.452 | 0.87
NCI-H2087 | 0.656 | 0.665 | 0.662 | 0.656 | 0.442 | 0.604 | 0.607 | 0.719 | 0.858 | 0.927 | 0.895 | 0.851 | 0.651 | 0.804 | 0.741 | 0.822 | 1.08 | 0.702
NCI-H2126 | 0.626 | 0.689 | 0.55 | 0.472 | 0.897 | 0.868 | 0.861 | 0.745 | 0.554 | 0.489 | 0.511 | 0.457 | 0.761 | 0.817 | 0.752 | 0.624 | 0.475 | 0.632
NCI-H2170 | 0.26 | 0.249 | 0.268 | 0.269 | 0.561 | 0.543 | 0.628 | 0.688 | 0.38 | 0.361 | 0.289 | 0.23 | 0.763 | 0.631 | 0.461 | 0.288 | – | –
NCI-H2228 | 0.281 | 0.285 | 0.305 | 0.21 | 0.629 | 0.61 | 0.618 | 0.333 | 0.36 | 0.227 | 0.234 | 0.47 | 0.443 | 0.695 | 0.175 | 0.486 | 0.354 | 0.978
NCI-H2347 | 0.369 | 0.441 | 0.41 | 0.402 | 0.496 | 0.624 | 0.581 | 0.525 | 0.863 | 0.861 | 0.649 | 0.502 | 0.668 | 0.674 | 0.629 | 0.635 | 0.624 | 0.476
NCI-H2405 | 1.05 | 1.13 | 1.09 | 1.12 | 0.83 | 0.875 | 0.833 | 0.842 | 0.434 | 0.487 | 0.338 | 0.465 | 1.08 | 1.05 | 0.99 | 0.995 | 0.392 | 1.25
NCI-H3122 | 0.165 | 0.152 | 0.197 | 0.116 | 0.634 | 0.557 | 0.641 | 0.537 | 0.657 | 0.59 | 0.57 | 0.553 | 0.988 | 1.17 | 0.998 | 0.96 | 0.521 | 1.11
PC-3 [JPC-3] | 0.824 | 0.957 | 1.03 | 0.519 | 0.914 | 0.855 | 1.09 | 0.536 | 0.775 | 0.798 | 0.774 | 0.296 | 0.737 | 0.937 | 0.732 | 0.319 | 0.71 | 1.21
PC-14 | 0.105 | 0.112 | 0.14 | 0.101 | 0.183 | 0.148 | 0.306 | 0.136 | 0.791 | 0.737 | 0.614 | 0.0773 | 0.923 | 0.693 | 0.768 | 0.0952 | 0.834 | 0.74
